Results from a compilation of properties of binary mixtures (doi:10.1016/j.molliq.2018.02.064).

Assay: xn = mol fraction of the nth substance listed
Details: 100 kPa, x2 = 0

CCO + CCCC[n+]1ccn(C)c1.O=S(=O)([N-]S(=O)(=O)C(F)(F)F)C(F)(F)F
Details	viscosity [mPa·s]
293 K	1.19
293.3 K	1.18
293.61 K	1.18
293.91 K	1.17
294.21 K	1.17
294.52 K	1.16
294.82 K	1.16
295.12 K	1.15
295.42 K	1.15
296.03 K	1.14
296.33 K	1.13
296.64 K	1.13
297.24 K	1.12
298.45 K	1.09
298.76 K	1.09
299.06 K	1.08
299.36 K	1.08
299.67 K	1.07
299.97 K	1.07
300.27 K	1.06
300.58 K	1.06
300.88 K	1.05
301.18 K	1.05
301.79 K	1.04
302.09 K	1.03
302.39 K	1.03
303 K	1.02
303.61 K	1.01
303.91 K	1
304.52 K	0.99
304.82 K	0.99
305.12 K	0.98
305.42 K	0.98
305.73 K	0.97
306.33 K	0.96
306.64 K	0.96
306.94 K	0.95
307.24 K	0.95
307.55 K	0.94
307.85 K	0.94
308.15 K	0.93
308.45 K	0.93
308.76 K	0.92
309.06 K	0.92
309.36 K	0.91
309.97 K	0.9
310.27 K	0.9
310.88 K	0.89
311.18 K	0.88
311.48 K	0.88
311.79 K	0.87
312.09 K	0.87
312.39 K	0.86
313.91 K	0.84
314.21 K	0.84
314.52 K	0.83
314.82 K	0.83
315.12 K	0.82
315.42 K	0.82
315.73 K	0.81
316.03 K	0.81
316.64 K	0.8
316.94 K	0.8
317.24 K	0.79
317.55 K	0.79
317.85 K	0.78
318.15 K	0.78
318.76 K	0.77
319.06 K	0.77
319.97 K	0.75
320.27 K	0.75
320.58 K	0.74
321.18 K	0.73
321.79 K	0.73
322.09 K	0.72
322.39 K	0.72
322.7 K	0.71
323 K	0.71
